Data reported in US11149019B2, “Phenylpyridine derivative and pharmaceutical composition comprising the same” (Daewoong Pharmaceutical Co., Ltd., priority 2017, dated 2021).

Legend:
ITK = target: T1, ITK (Homo sapiens, UniProt Q08881); test: ADP-Glo + ITK Kinase enzyme system kit, inhibitory activity against ITK; format: biochemical; conditions: ITK enzyme 0.4 ng/ul, ATP final concentration of 25 ul, 30° C. for 1 hour, luminescence, duplicate
T1 construct: purchased Promega Corporation
T1 sequence (Q08881 1-620): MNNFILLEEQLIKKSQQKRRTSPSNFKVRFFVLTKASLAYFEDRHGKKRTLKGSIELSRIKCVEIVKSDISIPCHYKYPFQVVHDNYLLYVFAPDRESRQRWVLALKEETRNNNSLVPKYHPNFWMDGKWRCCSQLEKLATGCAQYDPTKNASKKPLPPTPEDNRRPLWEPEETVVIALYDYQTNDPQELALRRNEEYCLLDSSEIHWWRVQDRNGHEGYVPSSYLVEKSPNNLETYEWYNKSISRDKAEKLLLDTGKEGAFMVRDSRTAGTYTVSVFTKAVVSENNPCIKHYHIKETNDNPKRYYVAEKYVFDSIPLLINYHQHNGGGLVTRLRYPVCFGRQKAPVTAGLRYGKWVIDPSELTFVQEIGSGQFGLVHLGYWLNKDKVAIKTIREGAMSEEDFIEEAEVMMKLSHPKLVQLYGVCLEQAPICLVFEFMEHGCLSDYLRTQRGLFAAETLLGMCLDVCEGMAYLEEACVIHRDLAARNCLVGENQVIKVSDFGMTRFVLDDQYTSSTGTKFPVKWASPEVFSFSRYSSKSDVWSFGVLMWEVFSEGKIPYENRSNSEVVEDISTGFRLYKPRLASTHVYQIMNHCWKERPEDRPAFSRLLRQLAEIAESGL
Method: (§1) Inhibitory activities against BTK and ITK were measured for the compounds prepared in the above Examples as follows.
The inhibitory activity against ITK was evaluated using ‘ADP-Glo™+ITK Kinase enzyme system’ kit (Promega Corporation). In a white 96-well plate, 10 ul of ITK enzyme prepared so as to have a final concentration of 0.4 ng/ul was mixed with 5 ul of compounds having a final concentration of 1 uM in the case of evaluating a single concentration of compound and a concentration of 1000, 300, 100, 30, 10, 3, 1, 0.3, 0.1 and 0.03 nM in the case of IC50 evaluation, and then reacted at room temperature for 15 minutes. To the plate on which reactions were completed, 5 ul of substrate and 5 ul of ATP prepared so as to have a final concentration of […] added and then allowed to react at 30° C. for 1 hour. All wells of the plate were treated with 25 ul of ADP-Glo™ reagent and then allowed to react at 30° C. for 40 minutes. After that, all wells were treated with 50 ul of kinase detection buffer, and then allowed to react at 30° C. for 30 minutes under light shielding conditions. For the plate on which all reactions were completed, luminescence was measured and the results were calculated. Evaluation was carried out in duplicate, and negative control and positive control were calculated depending on whether or not the enzyme was added without treatment of the compound. The IC50 was calculated based on the calculated values.

BTK = target: T2, BTK (Homo sapiens, UniProt Q06187); test: ADP-Glo + BTK Kinase enzyme system kit, inhibitory activity against BTK; format: biochemical; conditions: BTK enzyme 1 ng/ul, ATP 10 μM, 30° C. for 1 hour, luminescence, duplicate
T2 construct: purchased Promega Corporation
T2 sequence (Q06187 whole entry): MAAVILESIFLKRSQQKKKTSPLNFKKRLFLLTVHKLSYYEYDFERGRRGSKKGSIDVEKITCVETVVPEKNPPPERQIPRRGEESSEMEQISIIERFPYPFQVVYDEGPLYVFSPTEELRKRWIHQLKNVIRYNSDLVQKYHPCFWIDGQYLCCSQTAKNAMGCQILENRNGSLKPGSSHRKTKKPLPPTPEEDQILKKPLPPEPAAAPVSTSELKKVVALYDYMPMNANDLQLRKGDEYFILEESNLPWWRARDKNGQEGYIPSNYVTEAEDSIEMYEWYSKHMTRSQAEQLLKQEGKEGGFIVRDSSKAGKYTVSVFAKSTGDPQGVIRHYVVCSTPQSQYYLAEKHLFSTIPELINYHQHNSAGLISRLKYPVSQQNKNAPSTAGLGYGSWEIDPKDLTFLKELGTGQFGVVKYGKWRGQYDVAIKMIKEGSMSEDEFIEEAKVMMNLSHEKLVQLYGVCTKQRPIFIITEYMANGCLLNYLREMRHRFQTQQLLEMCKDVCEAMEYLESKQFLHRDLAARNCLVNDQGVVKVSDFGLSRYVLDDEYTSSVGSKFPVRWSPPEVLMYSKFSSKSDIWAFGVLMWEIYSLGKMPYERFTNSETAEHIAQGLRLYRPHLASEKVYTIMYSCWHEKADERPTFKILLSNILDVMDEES
Method: as §1
The inhibitory activities against BTK were evaluated using ‘ADP-Glo™+BTK Kinase enzyme system’ kit (Promega Corporation). In a white 96-well plate, 10 ul of BTK enzyme prepared so as to have a final concentration of 1 ng/ul was mixed with 5 μl of compounds having a final concentration of […] the case of evaluating a single concentration of compound and a concentration of 1000, 300, 100, 30, 10, 3, 1, 0.3, 0.1 and 0.03 nM in the case of IC50 evaluation, and then reacted at room temperature for 15 minutes. 5 ul of substrate and 5 ul of ATP prepared so as to have a final concentration of 10 μM were added to the plate on which reactions were completed, and then allowed to react at 30° C. for 1 hour. All wells of the plate were treated with 25 ul of ADP-Glo™ reagent and allowed to react at 30° C. for 40 minutes. After that, all wells were treated with 50 ul of kinase detection buffer, and then reacted at 30° C. for 30 minutes under light shielding conditions. For the plate on which all reactions were completed, luminescence was measured and the results were calculated. Evaluation was carried out in duplicate, and negative control and positive control were calculated depending on whether or not the enzyme was added without treatment of the compound. The IC50 was calculated based on the calculated values.

With `C=CC(=O)Nc1cccc(-c2cc(CN3CCCN(C)CC3)cc(Nc3ncc(C)s3)n2)c1` [Compound 55, N-(3-(4-((4-methyl-1,4-diazepan-1-yl)methyl)-6-(5-methylthiazol-2-ylamino)pyridin-2-yl)phenyl)acrylamide] the IC50 (ITK) was 13.4 nM and the IC50 (BTK) was 10.6 nM.
For `C=CC(=O)Nc1cccc(-c2cc(C(=O)N3CCOCC3)cc(Nc3cc(C)[nH]n3)n2)c1` [Compound 31, N-(3-(6-((5-methyl-1H-pyrazol-3-yl)amino)-4-(morpholine-4-carbonyl)pyridin-2-yl)phenyl)acrylamide], the IC50 (ITK) was 56.9 nM and the IC50 (BTK) was 17.6 nM.
In the case of `C=CC(=O)Nc1cccc(-c2cc(CN3C[C@@H](C)O[C@@H](C)C3)cc(Nc3ncc(C)s3)n2)c1` [Compound 46, N-(3-(4-(((2S,6R)-2,6-dimethylmorpholino)methyl)-6-(5-methylthiazol-2-ylamino)pyridin-2-yl)phenyl)acrylamide], the IC50 (ITK) is reported as 1.6 nM and the IC50 (BTK) is reported as 1.7 nM.
`C=CC(=O)Nc1cccc(-c2cc(CN3CCOCC3)cc(NC(=O)CC)n2)c1` [Compound 68, N-(3-(4-(morpholinomethyl)-6-propionamidopyridin-2-yl)phenyl)acrylamide] gave an IC50 (ITK) of over 1000 nM and an IC50 (BTK) of over 400 nM.
Work on `C=CC(=O)Nc1cccc(-c2cc(CN3CCN(C4CC4)CC3)cc(Nc3ncc(C)s3)n2)c1` [Compound 45, N-(3-(4-((4-cyclopropylpiperazin-1-yl)methyl)-6-((5-methylthiazol-2-yl)amino)pyridin-2-yl)phenyl)acrylamide] yielded an IC50 (ITK) of 2.1 nM and an IC50 (BTK) of 3 nM.
With `C=CC(=O)Nc1cccc(-c2cc(CN3CCOCC3)cc(Nc3nnc(C)s3)n2)c1` [Compound 39, N-(3-(6-(5-methyl-1,3,4-thiadiazol-2-ylamino)-4-(morpholinomethyl)pyridin-2-yl)phenyl)acrylamide] the IC50 (ITK) was over 1000 nM and the IC50 (BTK) was 252 nM.
`C=CC(=O)Nc1ccc(F)c(-c2cc(CN3CCOCC3)cc(Nc3ncc(C)s3)n2)c1` [Compound 52] showed an IC50 (ITK) of 2.2 nM and an IC50 (BTK) of 1.9 nM.
For `C=CC(=O)Nc1cc(-c2cc(CN3CCOCC3)cc(Nc3ncc(C)s3)n2)ccc1F` [Compound 56, N-(2-fluoro-5-(6-((5-methylthiazol-2-yl)amino)-4-(morpholinomethyl)pyridin-2-yl)phenyl)acrylamide], the IC50 (ITK) was 4.2 nM and the IC50 (BTK) was 1.8 nM.
Work on `C=CC(=O)Nc1cccc(-c2cc(CNC(C)C(C)(C)C)cc(Nc3cc(C)[nH]n3)n2)c1` (stereo not drawn) [Compound 19] yielded an IC50 (ITK) of over 500 nM and an IC50 (BTK) of 74.7 nM.
`C=CC(=O)Nc1cccc(-c2cc(Cc3ccccc3)cc(Nc3cc(Cc4ccc(C)cc4)[nH]n3)n2)c1` [Compound 8] gave an IC50 (ITK) of 572 nM and an IC50 (BTK) of 308 nM.
Compound `C=CC(=O)Nc1cccc(-c2cc(CN3CCN(CCC)CC3)cc(Nc3ncc(C)s3)n2)c1` [Compound 48, N-(3-(6-((5-methylthiazol-2-yl)amino)-4-((4-propylpiperazin-1-yl)methyl)pyridin-2-yl)phenyl)acrylamide] has an IC50 (ITK) of 4.3 nM and an IC50 (BTK) of 1.1 nM.
Compound `C=CC(=O)Nc1cccc(-c2cc(Cc3cccnc3)cc(Nc3ncc(C)s3)n2)c1` [Compound 73, N-(3-(6-((5-methylthiazol-2-yl)amino)-4-(pyridin-3-ylmethyl)pyridin-2-yl)phenyl)acrylamide] has an IC50 (ITK) of 2.3 nM and an IC50 (BTK) of 2.5 nM.
In the case of `C=CC(=O)Nc1cccc(-c2cc(CN3CCN(C)CC3)cc(Nc3ncc(C)s3)n2)c1` [Compound 37, N-(3-(4-((4-methylpiperazin-1-yl)methyl)-6-(5-methylthiazol-2-ylamino)pyridin-2-yl)phenyl)acrylamide], the IC50 (ITK) is reported as 5.5 nM and the IC50 (BTK) is reported as 0.9 nM.
`C=CC(=O)N(C)c1cccc(-c2cc(CN3CCOCC3)cc(Nc3ncc(C)s3)n2)c1` [Compound 65] showed an IC50 (ITK) of 2.1 nM and an IC50 (BTK) of 1.9 nM.
`C=CC(=O)Nc1cccc(-c2cc(N3CCOCC3)cc(Nc3ncc(C)s3)n2)c1` [Compound 36, N-(3-(6-((5-methylthiazol-2-yl)amino)-4-morpholinopyridin-2-yl)phenyl)acrylamide] showed an IC50 (ITK) of 394 nM and an IC50 (BTK) of over 100 nM.
With `C=CC(=O)Nc1cccc(-c2cc(CN3CC(C)OC(C)C3)cc(Nc3ncc(C)s3)n2)c1` (stereo not drawn) [Compound 34] the IC50 (ITK) was 3.1 nM and the IC50 (BTK) was 2.4 nM.
In the case of `C=CC(=O)Nc1cccc(-c2cc(CN3CCOCC3)cc(Nc3cc(C4CC4)[nH]n3)n2)c1` [Compound 27, N-(3-(6-((5-cyclopropyl-1H-pyrazol-3-yl)amino)-4-(morpholinomethyl)pyridin-2-yl)phenyl)acrylamide], the IC50 (ITK) is reported as 36.9 nM and the IC50 (BTK) is reported as 68.7 nM.
`C=CC(=O)Nc1cccc(-c2cc(N(C)C)cc(Nc3ncc(C)s3)n2)c1` [Compound 35, N-(3-(4-(dimethylamino)-6-((5-methylthiazol-2-yl)amino)pyridin-2-yl)phenyl)acrylamide] gave an IC50 (ITK) of over 1000 nM and an IC50 (BTK) of over 400 nM.
With `C=CC(=O)Nc1cccc(-c2cccc(Nc3cc(-c4ccccc4)[nH]n3)n2)c1` [Compound 14, N-(3-(6-(5-phenyl-1H-pyrazol-3-ylamino)pyridin-2-yl)phenyl)acrylamide] the IC50 (ITK) was 399 nM and the IC50 (BTK) was 350 nM.
In the case of `C#CC(=O)Nc1cccc(-c2cc(Cc3ccccc3)cc(Nc3cc(C)[nH]n3)n2)c1` [Compound 6, N-(3-(4-benzyl-6-((5-methyl-1H-pyrazol-3-yl)amino)pyridin-2-yl)phenyl)propiolamide], the IC50 (ITK) is reported as over 500 nM and the IC50 (BTK) is reported as over 1000 nM.
`C=CC(=O)Nc1cccc(-c2cc(C)cc(Nc3cc(CC)[nH]n3)n2)c1` [Compound 24, N-(3-(6-(5-ethyl-1H-pyrazol-3-ylamino)-4-methylpyridin-2-yl)phenyl)acrylamide] gave an IC50 (ITK) of 159 nM and an IC50 (BTK) of 10.9 nM.
Work on `C=CC(=O)Nc1cccc(-c2cc(C(=O)N3CCOCC3)cc(Nc3cc(C4CC4)[nH]n3)n2)c1` [Compound 28, N-(3-(6-(5-cyclopropyl-1H-pyrazol-3-ylamino)-4-(morpholine-4-carbonyl)pyridin-2-yl)phenyl)acrylamide] yielded an IC50 (ITK) of 68.1 nM and an IC50 (BTK) of 310 nM.
`C=CC(=O)Nc1cccc(-c2cc(CN3CCN(C(=O)CC)CC3)cc(Nc3ncc(C)s3)n2)c1` [Compound 61, N (3(6(5methylthiazol-2-ylamino)-4-((4-propionylpiperazin-1-yl)methyl)pyridin-2-yl)phenyl)acrylamide] was tested, and the IC50 (ITK) was 13.5 nM and the IC50 (BTK) was 9.5 nM.
Compound `C=CC(=O)Nc1ccc(C)c(-c2cc(CN3CCOCC3)cc(Nc3ncc(C)s3)n2)c1` [Compound 59, N-(4-methyl-3-(6-((5-methylthiazol-2-yl)amino)-4-(morpholinomethyl)pyridin-2-yl)phenyl)acrylamide] has an IC50 (ITK) of 18.1 nM and an IC50 (BTK) of 8.3 nM.
In the case of `C=CC(=O)Nc1cccc(-c2cc(CN3CCN(CCO)CC3)cc(Nc3ncc(C)s3)n2)c1` [Compound 43, N-(3-(4-((4-(2-hydroxyethyl)piperazin-1-yl)methyl)-6-(5-methylthiazol-2-ylamino)pyridin-2-yl)phenyl)acrylamide], the IC50 (ITK) is reported as 2.1 nM and the IC50 (BTK) is reported as 2.3 nM.
Work on `C=CC(=O)Nc1cccc(-c2cc(Cc3ccccc3)cc(Nc3cc[nH]n3)n2)c1` [Compound 11] yielded an IC50 (ITK) of 134 nM and an IC50 (BTK) of 17.5 nM.
`C=CC(=O)Nc1cccc(-c2cc(Cc3ccccc3)cc(Nc3cc(CCc4ccccc4)[nH]n3)n2)c1` [Compound 10, N-(3-(4-benzyl-6-((5-phenethyl-1H-pyrazol-3-yl)amino)pyridin-2-yl)phenyl)acrylamide] was tested, and the IC50 (ITK) was 502 nM and the IC50 (BTK) was 65.1 nM.
